“Also recorded” adds a separate entry of the source. Marks after values point to notes of the source that are not given here.

For one assay, the system named is Leptotrichia wadei. Briefly: Clinical trial: plaque microbial analysis, Leptotrichia wadei. The following applies: 18.8 mg CPP-ACP sugar-free gum, 20 min six times per day, 14 days, vs no gum chewing; supragingival plaque. In kind it is in vivo. The source says: Following the completion of the examination and supragingival plaque collection, participants received a supragingival scaling, clean and prophylaxis of all their teeth. At the completion of the last examination for leg 3, each participant received a professional fluoride treatment.
Participants had all supragingival plaque collected from the buccal surfaces of their maxillary molars (teeth 17, 16, 26 & 27) with a sterile scaling instrument. The plaque samples from each tooth were placed in separate sterile tubes, to give four samples per participant.
Genomic DNA was extracted from the plaque using a combination of mechanical disruption of the cells via a Precellys homogeniser and the chemical extraction and purification of the genomic DNA via the PowerLyzer PowerSoil DNA Isolation Kit (MoBio). Quantitation of the extracted DNA was achieved using a Qubit dsDNA High Sensitivity Assay kit (ThermoFisher), before 5 ng DNA was used as template in a PCR reaction that amplified the V4 variable region of the 16S ribosomal RNA gene and individually barcoded the PCR product from each sample. The barcoded DNA was then sequenced using an Ion Torrent Personal Genome machine and Torrent Suite™ Software (ThermoFisher).
Analysis of the resulting sequence of the 16S ribosomal RNA gene enabled identification of the bacterial population present in each sample, down to the species level. […]

For a further assay, the system named is supragingival plaque. In words: Clinical trial: plaque index (Turesky modification of the Quigley-Hein Index). The following applies: CPP-ACP gum (18.8 or 56.4 mg), 14 days, vs no gum chewing; FIG. 1. The assay is classed as in vivo, human. The method, then: Following the completion of the examination and supragingival plaque collection, participants received a supragingival scaling, clean and prophylaxis of all their teeth. At the completion of the last examination for leg 3, each participant received a professional fluoride treatment. Supragingival plaque was assessed using the Turesky modification of the Quigley-Hein Index (Turesky et al 1970 J Periodontol 41(1):41-43). This index is recognised as a reliable estimate of the tooth area covered by plaque and is frequently used for evaluating anti-plaque agents. The plaque index was obtained by adding the scores for each tooth and dividing by the number of surfaces examined. Plaque scores associated with unrestored labial, buccal and lingual surfaces of all teeth, except third molars were assessed. Each surface was assigned a score from 0 to 5.

Assay [1] deals with Streptococcus sanguinis (NCTC 7863). In words: Six species polymicrobial biofilm in constant-depth film fermenter, species composition: S. sanguinis. The assay is classed as cell-based. Here is the method: (§1) To model supragingival plaque six representative oral bacterial species, Streptococcus sanguinis (NCTC 7863), Streptococcus mutans Ingbritt, Actinomyces naeslundii (NCTC 10301), Veillonella parvula (ATCC 17745), Lactobacillus casei (NCDO 161) and Fusobacterium nucleatum (ATCC 10953) (Table 5) were cultured as a polymicrobial biofilm on a human enamel substratum in a constant-depth film fermenter (CDFF; Cardiff University, UK). The CDFF was housed in a 37° C. incubator under anaerobic conditions which were maintained by a constant flow of 5% CO2 in N2 at 1 L/h. The CDFF contained 15 removable polytetrafluoroethylene (PTFE) pans on a circular platform that was rotated at a constant speed of three rpm. The biofilms were grown on three enamel blocks (see below) in each PTFE pan using an artificial saliva medium (ASM, 2.5 g/L mucin type II (porcine, gastric, Sigma), 2.0 g/L bacteriological peptone (Oxoid), 2.0 g/L tryptone (Oxoid), 1.0 g/L yeast extract (Oxoid), 0.35 g/L NaCl, 0.2 g/L KCl, 0.2 mg/L vitamin K, 1 mg/L haemin and 0.1 g/L cysteine hydrochloride) at a constant flow rate of 30 mL/h. Prior to inoculation, the CDFF pan surfaces were conditioned for 24 h with ASM at a flow rate of 10 mL/h (McBain et al (2003) J Appl Microbiol. 94(4):655-66). In order to mimic in vivo bacterial growth conditions in the oral cavity with dietary sugar intake and to provide a high cariogenic challenge, a 1% (w/v) sucrose solution in ASM was pumped into the CDFF four times a day at four hourly intervals with a flow rate of 30 mL/h for 10 min.
Three treatments were applied to the polymicrobial biofilms: 290 ppm fluoride with 220 ppm fluoride as SnF2 and 70 ppm fluoride as NaF (referred to as SnF2), 2% CPP-ACP and 2% CPP-ACP-SnF2. These treatments were compared with the control in which the test solution was replaced with ASM. Each treatment was applied using two 10 min pulses of the test solution in ASM with a flow rate of 30 mL/h. The first pulse started 30 min prior to the first sucrose pulse of the morning and the second started 3 h 30 min after the final sucrose pulse of the day.
On day 6, 12 and 19 after inoculation four pans were removed aseptically from the CDFF and replaced with blank sterile pans. Enamel blocks from the pans were removed for bacterial enumeration and transverse microradiography.
Planktonic and loosely attached bacterial cells were firstly removed from the enamel blocks by light washing with 100 μL ASM. […]
(§2) For each timepoint, DNA was extracted separately from 8-9 enamel blocks using PowerLyzer® PowerSoil® DNA Isolation Kits (MoBio Laboratories) following the manufacturers “Vacuum Protocol” with a Precellys® bead homogeniser (Bertin Technologies). Samples were quantified using a Qubit™ dsDNA HS assay kit (Life Technologies) before being stored at −80° C. […]

Assay [2] relates to Veillonella parvula (ATCC 17745). Briefly: Six species polymicrobial biofilm in constant-depth film fermenter, species composition: V. parvula. The assay is classed as cell-based. The method, then: as §1
Three treatments were applied to the polymicrobial biofilms: 290 ppm fluoride with 220 ppm fluoride as SnF2 and 70 ppm fluoride as NaF (referred to as SnF2), 2% CPP-ACP and 2% CPP-ACP-SnF2. […]
as §2

[3] abbreviates: 19 days, mean ± standard deviation, n = 5-21.

Regarding “Casein phosphopeptide-amorphous calcium phosphate [CPP-ACP]”, the “% decrease in relative abundance, Leptotrichia wadei” value with Leptotrichia wadei is reported as 91% (p < 0.001). In the assay on supragingival plaque, the plaque index result is on record as “did not produce a significant change”. In addition, in assay [1] (setting [3]), the “S. sanguinis as a percentage of total bacteria in the biofilm” value is 19.85 ± 2.86^bc %. In assay [1] (twice daily treatment, day 19), the “change in abundance of S. sanguinis relative to the control (in words)” value is given as “significantly increased; also recorded: reproducible increases”. The “V. parvula as a percentage of total bacteria in the biofilm” value in assay [2] (setting [3]) is 6.71 ± 0.89^c %. For the same substance, the “change in abundance of V. parvula relative to the control (in words)” value in assay [2] (twice daily treatment, day 19) was “remained relatively constant”.
